Test results taken from ChEMBL document CHEMBL1201862, “PubChem BioAssay data set” (2004).
Activity calls are given as the source filed them.

Test system: H9c2;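 also: confirmatory concentration-response retest of ultra-high-throughput screening hits for modulation of myocardial damage; cell death induced by hydrogen peroxide oxidative stress; compound pretreatment for 60 min then peroxide exposure for 2 h; potency is for protecting the cells against peroxide damage rather than for killing them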
Assay: cells
Assay type: functional, cell-based
Conditions: Rattus norvegicus, H9c2, Myocardium

Compound	IC50
Cc1cc(C)cc(N(CCC#N)C(=O)COC(=O)Cn2[nH]c(=O)c3ccccc3c2=O)c1	> 79 µM (inactive)
O=C(c1ccc(-c2nc3ccccc3s2)o1)N1CCN(c2ccccc2O)CC1	> 79 µM (inactive)
CCCN1CCN(C(=O)CCc2nnc3ccc(N4CCN(c5cccc(OC)c5)CC4)nn23)CC1	> 79 µM (inactive)
O=Cc1ccc(OCc2cccc(C(F)(F)F)c2)cc1O	> 79 µM (inactive)
COc1cc(OC)cc(C(=O)NNC(=O)CCc2nc(O)c3ccccc3n2)c1	19.6 µM (active)
COc1ccc(C=NNc2nc3c(=O)n(C)c(=O)n(C)c3[nH]2)cc1	> 79 µM (inactive)
CC(C)(C)OC(=O)NCCCCCNC(=O)c1[nH]cnc1C(=O)Nc1ccc(Cl)cc1	> 79 µM (inactive)
CC(=O)Nc1cccc(-c2cc(NC=O)c3ncc(-c4cccc(C(C)=O)c4)n3c2)c1	> 79 µM (inactive)
Nc1ccc2c(c1)nc(O)c1ccccc12	8.49 µM (active)
O=C(NCC1CCCO1)C(c1ccc(F)cc1)N(C(=O)Cn1nnc(-c2ccc(F)cc2)n1)c1cccc(O)c1 (centres undefined)	> 79 µM (inactive)
CCN(CC(=O)Nc1c(F)cccc1F)C(=O)CCc1nc(O)c2ccccc2n1	> 79 µM (inactive)
Cc1cc(C)cc(OCC(=O)Nc2cccc(-c3nnc(-c4ccco4)o3)c2)c1	9.22 µM (active)

Test system: not listed separately
Assay: control 3'UTR Renilla luciferase suppression, dose response, counter-screen for Shn3 inhibitor project, cell-based, Clone20-Shn3RL, cherry-picked (AID 624133)
Assay type: functional
Conditions: not given

Compound	AC50
Cc1ccc(S(=O)(=O)CCC(=O)OCC(=O)Nc2cc(S(=O)(=O)N3CCOCC3)ccc2C)cc1	1.76 µM (active)

Molecular target: Large T antigen (Simian virus 40, UniProt P03070);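 also: Confirmatory-stage PubChem screen for compounds that inhibit SV40 T antigen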
Assay: not given
Assay type: functional, Betapolyomavirus macacae
Conditions: not given

Sequence of Large T antigen (P03070 whole entry): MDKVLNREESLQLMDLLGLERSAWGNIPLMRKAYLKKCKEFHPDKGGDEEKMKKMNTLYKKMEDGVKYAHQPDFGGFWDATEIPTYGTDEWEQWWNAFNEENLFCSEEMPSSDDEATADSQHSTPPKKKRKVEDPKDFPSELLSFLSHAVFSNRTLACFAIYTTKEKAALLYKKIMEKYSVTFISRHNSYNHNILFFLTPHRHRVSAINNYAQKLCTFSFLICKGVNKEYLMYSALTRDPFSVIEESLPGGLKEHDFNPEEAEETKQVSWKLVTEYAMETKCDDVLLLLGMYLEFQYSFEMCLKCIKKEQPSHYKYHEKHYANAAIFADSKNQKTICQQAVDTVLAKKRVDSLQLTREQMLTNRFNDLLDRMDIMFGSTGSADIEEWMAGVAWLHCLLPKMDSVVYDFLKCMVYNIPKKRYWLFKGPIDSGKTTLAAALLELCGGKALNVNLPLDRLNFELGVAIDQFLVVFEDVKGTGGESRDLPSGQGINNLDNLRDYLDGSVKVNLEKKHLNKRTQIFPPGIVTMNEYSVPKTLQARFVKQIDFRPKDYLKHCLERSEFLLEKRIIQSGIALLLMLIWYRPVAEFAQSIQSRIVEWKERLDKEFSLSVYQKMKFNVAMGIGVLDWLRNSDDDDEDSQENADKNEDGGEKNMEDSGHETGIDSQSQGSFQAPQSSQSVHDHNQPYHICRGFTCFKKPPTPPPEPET

Compound	IC50
COc1cc(/C=N/NC(=O)CNC(=O)c2ccco2)ccc1O	6.31 µM (active)
COc1ccc(-c2cc(=O)oc3c(O)c(O)ccc23)cc1	8.81 µM (active)
COc1cc2c(OC)c3ccoc3nc2cc1O	20 µM (active)
COc1ccc(Cc2nc3ccccc3n2CC(=O)N/N=C/c2ccc(O)cc2)cc1OC	> 100 µM (active)

Molecular target: T1, Protein skinhead-1 (Caenorhabditis elegans, UniProt P34707)
T1 sequence (P34707 whole entry): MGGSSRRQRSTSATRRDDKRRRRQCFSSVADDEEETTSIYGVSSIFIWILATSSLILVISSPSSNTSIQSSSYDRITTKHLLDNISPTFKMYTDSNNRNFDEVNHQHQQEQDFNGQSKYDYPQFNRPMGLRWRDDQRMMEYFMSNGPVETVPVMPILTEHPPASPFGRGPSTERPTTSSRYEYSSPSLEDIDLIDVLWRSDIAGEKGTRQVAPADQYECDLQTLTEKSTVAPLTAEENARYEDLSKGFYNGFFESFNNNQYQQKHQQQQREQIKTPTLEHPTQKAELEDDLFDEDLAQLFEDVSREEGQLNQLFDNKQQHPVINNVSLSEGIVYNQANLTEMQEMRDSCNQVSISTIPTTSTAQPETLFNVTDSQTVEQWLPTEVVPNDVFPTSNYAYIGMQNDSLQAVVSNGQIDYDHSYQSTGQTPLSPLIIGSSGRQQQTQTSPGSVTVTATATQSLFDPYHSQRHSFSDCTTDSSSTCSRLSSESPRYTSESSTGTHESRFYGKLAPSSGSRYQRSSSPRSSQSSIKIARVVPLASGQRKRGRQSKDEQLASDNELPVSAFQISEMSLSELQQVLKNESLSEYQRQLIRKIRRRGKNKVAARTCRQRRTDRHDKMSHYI
Assay: not given
Assay type: functional
Conditions: not given

Compound	IC50
O=C(/C=C/Nc1ccccc1)c1ccccc1	> 100 µM (inactive)
Cc1cccc(-c2nc3c(c(SCC(=O)N4CCOCC4)n2)CCCC3)c1	> 100 µM (inactive)

Molecular target: T2, Heat shock factor protein 1 (Mus musculus, UniProt P38532)
T2 sequence (P38532 whole entry): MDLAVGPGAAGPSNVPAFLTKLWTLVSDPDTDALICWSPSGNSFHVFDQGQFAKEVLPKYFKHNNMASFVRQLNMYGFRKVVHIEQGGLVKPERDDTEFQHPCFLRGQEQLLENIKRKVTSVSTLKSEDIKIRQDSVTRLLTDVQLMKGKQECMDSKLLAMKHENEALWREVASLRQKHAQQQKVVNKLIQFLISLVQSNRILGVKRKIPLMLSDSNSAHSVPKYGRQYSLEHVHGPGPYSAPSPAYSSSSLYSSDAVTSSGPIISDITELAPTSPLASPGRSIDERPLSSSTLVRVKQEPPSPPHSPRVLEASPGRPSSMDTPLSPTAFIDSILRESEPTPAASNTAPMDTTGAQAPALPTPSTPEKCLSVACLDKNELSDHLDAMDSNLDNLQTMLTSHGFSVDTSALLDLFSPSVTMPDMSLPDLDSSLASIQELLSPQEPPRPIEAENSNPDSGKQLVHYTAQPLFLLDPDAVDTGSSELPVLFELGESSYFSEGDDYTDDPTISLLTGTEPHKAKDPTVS
Assay: HSF1 potentiators in luciferase reporter cells, confirmation, cell-based, NIH3T3, luminescence, dose retest (AID 435004);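 also: stress induced by proteasome inhibitor MG132 added 30 min after compound; luciferase reporter driven by HSF1 response element in NIH3T3 cells; actives raise luminescence as potentiators of the MG132 stress response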
Assay type: functional
Conditions: not given

Compound	EC50
O=C(/C=C/Nc1ccccc1)c1ccccc1	> 260 µM (inconclusive)

Molecular target: T3, Rac GTPase-activating protein 1 (Homo sapiens, UniProt Q9H0H5)
T3 sequence (Q9H0H5 whole entry): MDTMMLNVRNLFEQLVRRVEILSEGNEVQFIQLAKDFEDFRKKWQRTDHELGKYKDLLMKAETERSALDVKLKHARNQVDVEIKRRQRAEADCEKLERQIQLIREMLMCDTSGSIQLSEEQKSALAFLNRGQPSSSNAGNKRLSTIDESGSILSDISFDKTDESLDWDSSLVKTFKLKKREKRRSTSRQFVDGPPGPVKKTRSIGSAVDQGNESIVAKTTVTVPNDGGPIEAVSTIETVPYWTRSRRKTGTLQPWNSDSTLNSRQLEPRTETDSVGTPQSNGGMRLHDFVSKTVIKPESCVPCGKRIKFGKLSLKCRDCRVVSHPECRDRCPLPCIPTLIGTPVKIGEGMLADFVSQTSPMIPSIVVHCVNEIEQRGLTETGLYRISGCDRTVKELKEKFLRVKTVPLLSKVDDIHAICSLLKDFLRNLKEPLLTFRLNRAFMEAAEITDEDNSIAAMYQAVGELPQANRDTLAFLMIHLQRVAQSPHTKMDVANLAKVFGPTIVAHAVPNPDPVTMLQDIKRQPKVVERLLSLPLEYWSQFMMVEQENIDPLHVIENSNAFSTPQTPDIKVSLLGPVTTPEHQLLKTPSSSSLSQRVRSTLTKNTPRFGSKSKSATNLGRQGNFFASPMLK
Assay: MgcRacGAP GTPase-activating activity inhibitors, confirmation, biochemical, ADP Hunter fluorescence, primary and confirmatory (AID 624330)
Assay type: functional
Conditions: not given

Compound	IC50
Cc1nc(C)c(CC(=O)N/N=C/c2ccc(O)cc2)c(O)n1	69.6 µM (active)
COc1cc(/C=N/NC(=O)CNC(=O)c2ccco2)ccc1O	38.5 µM (active)

Molecular target: FAD-linked sulfhydryl oxidase ALR (Homo sapiens, UniProt P55789)
Assay: inhibitors of human ALR sulfhydryl oxidase, dose response, biochemical, H2O2 detection, luminescence, cherry-pick (AID 493248)
Conditions: not given

Sequence of FAD-linked sulfhydryl oxidase ALR (P55789 whole entry): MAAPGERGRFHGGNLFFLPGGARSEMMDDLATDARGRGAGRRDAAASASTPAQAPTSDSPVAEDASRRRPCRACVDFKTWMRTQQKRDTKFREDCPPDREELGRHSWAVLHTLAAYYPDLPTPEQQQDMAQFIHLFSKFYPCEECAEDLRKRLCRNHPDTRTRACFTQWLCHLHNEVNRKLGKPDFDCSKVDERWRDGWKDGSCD

Compound	AC50
Cc1nc(C)c(CC(=O)N/N=C/c2ccc(O)cc2)c(O)n1	2.17 µM (active)
CC(=O)N1CCN=C1SCc1c(F)cccc1Cl	0.631 µM (active)
COc1cc(/C=N/NC(=O)CNC(=O)c2ccco2)ccc1O	3.47 µM (active)
O=S(=O)(Nc1ccc(N2CCCCC2)cc1)c1ccccc1F	2.08 µM (active)
CN(NC1CC(=O)N(c2ccccc2)C1=O)c1ccccc1 (centres undefined)	6.83 µM (active)
COc1ccc(-c2cc(=O)oc3c(O)c(O)ccc23)cc1	1.35 µM (active)
CC(C)CN1C(=O)NC(NS(=O)(=O)c2ccc(N)cc2)(C(F)(F)F)C1=O (centres undefined)	0.73 µM (active)
COC(=O)c1ccccc1N=Nc1c(N)n[nH]c1N	6.65 µM (active)
N#CCC(=O)Nc1ccc(C(=O)Nc2cccnc2)cc1	0.87 µM (active)
COc1cc(/C=N/N2C(C)CCCC2C)cc(Br)c1O (centres undefined)	0.495 µM (active)
Cc1cc2ncn(C(=O)c3ccc(F)cc3)c2cc1C	5.34 µM (active)
COc1cc2c(OC)c3ccoc3nc2cc1O	0.49 µM (active)
COc1ccc(Cc2nc3ccccc3n2CC(=O)N/N=C/c2ccc(O)cc2)cc1OC	0.901 µM (active)
c1ccc(CN2CCC(=NNc3nc4ccccc4[nH]3)CC2)cc1	2.31 µM (active)
Cc1[nH]c(C)c(S(=O)(=O)NCc2ccc(N(C)C)cc2)c1C(=O)N1CCCC1	16.1 µM (active)
Cc1ccc(S(=O)(=O)NN2C(=O)/C(=C/c3cccnc3)SC2=S)cc1	4.96 µM (active)

Test system: not listed separately
Assay: Shn3 3'UTR reporter inhibitors, dose response, cell-based, Clone20 osteoblasts, firefly luciferase, cherry-picked (AID 624132);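 also: firefly luciferase luminescence from reporter carrying the Shn3 3'UTR in osteoblasts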
Assay type: functional
Conditions: not given

Compound	AC50
Cc1ccc(S(=O)(=O)CCC(=O)OCC(=O)Nc2cc(S(=O)(=O)N3CCOCC3)ccc2C)cc1	17.8 µM (active)
